Where only a bound is given, the exact number is not on record here.

The first experiment deals with T1, Pol theta (1-899) (Homo sapiens, UniProt O75417).
T1 construct: Pol theta (1-899) (5 nM) in assay buffer
T1 sequence (O75417 1-899): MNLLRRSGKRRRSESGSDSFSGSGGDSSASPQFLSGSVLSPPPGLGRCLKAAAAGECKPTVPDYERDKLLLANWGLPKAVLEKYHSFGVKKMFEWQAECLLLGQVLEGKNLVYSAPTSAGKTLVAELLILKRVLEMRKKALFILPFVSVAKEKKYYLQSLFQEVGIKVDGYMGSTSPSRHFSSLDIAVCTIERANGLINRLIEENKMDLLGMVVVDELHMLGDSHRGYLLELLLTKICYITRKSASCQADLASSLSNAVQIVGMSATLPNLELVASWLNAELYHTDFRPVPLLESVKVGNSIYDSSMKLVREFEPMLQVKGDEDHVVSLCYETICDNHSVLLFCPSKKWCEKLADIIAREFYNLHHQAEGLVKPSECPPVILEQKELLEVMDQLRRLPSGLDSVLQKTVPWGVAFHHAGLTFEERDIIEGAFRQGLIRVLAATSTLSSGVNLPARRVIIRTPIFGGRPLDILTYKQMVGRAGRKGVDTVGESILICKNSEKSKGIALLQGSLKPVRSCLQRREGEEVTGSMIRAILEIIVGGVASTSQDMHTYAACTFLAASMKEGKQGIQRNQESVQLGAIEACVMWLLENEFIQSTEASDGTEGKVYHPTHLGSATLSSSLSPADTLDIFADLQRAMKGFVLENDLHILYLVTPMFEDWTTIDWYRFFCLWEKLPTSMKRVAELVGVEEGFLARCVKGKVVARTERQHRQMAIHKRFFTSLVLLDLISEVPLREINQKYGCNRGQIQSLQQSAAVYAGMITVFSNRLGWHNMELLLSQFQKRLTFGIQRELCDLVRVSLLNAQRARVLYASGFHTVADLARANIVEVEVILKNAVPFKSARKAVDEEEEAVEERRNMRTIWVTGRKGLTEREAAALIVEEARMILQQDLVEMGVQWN
Description: Pol theta ATPase activity, NADH oxidation-coupled enzymatic assay (ATPase NADH coupling: Standard Screening: hPolQ). As to conditions: Pol theta (1-899) 5 nM, NADH oxidation-coupled ATPase assay; compounds of Table 3. Format: biochemical. In outline:
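Rates of ATP hydrolysis taken from 60-min A340 traces of NADH oxidation via PK/LDH coupling, then fit four-parameter for IC50, Hill slope and max inhibition. Enzyme (5 nM, 1-899) and compounds preincubated 15 min before ATP 100 μM and 50-thymine ssDNA 300 nM (stock, equal volume added).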
As usually defined, the IC50 is the concentration at which inhibition is half-maximal. A higher IC50 goes with weaker potency. The compound `COc1nnc(NC(=O)c2cnc(C)cc2-c2ccc(NS(C)(=O)=O)cc2)s1` [Example 387, 4-(4-methanesulfonamidophenyl)-N-(5-methoxy-1,3,4-thiadiazol-2-yl)-6-methylpyridine-3-carboxamide] displayed a half-maximal inhibitory concentration (IC50) of 1000 to 10000 nM.

As to `COc1cnc(Cl)cc1-c1cc(C)ncc1C(=O)Nc1nnc(O[C@@H]2CO[C@H]3OCC[C@H]32)s1` (single isomer, unassigned) [Example 305], the IC50 is at most 200 nM.

Turning to `COc1nnc(NC(=O)c2ccnc(C#N)c2-c2cc(Cl)ncc2OC)s1` [Example 289, 2′-chloro-2-cyano-5′-methoxy-N-(5-methoxy-1,3,4-thiadiazol-2-yl)-[3,4′-bipyridine]-4-carboxamide], the IC50 is 1000 to 10000 nM.

As for `COc1ccc(-c2cc(C)ncc2C(=O)Nc2nnc(OC)s2)cc1` [Example 377, N-(5-methoxy-1,3,4-thiadiazol-2-yl)-4-(4-methoxyphenyl)-6-methylpyridine-3-carboxamide], the IC50 was in the range of 1000 to 10000 nM.

Regarding `COc1nnc(NC(=O)c2cnc(C)cc2-c2ccc3nccnc3c2)s1` [Example 341, N-(5-methoxy-1,3,4-thiadiazol-2-yl)-6-methyl-4-(quinoxalin-6-yl)pyridine-3-carboxamide], the concentration for half-maximal inhibition (IC50) lay in the range of 500 to 1000 nM.

The compound `COc1cnc(Cl)cc1-c1cc(C)ncc1C(=O)Nc1nnc(OC2CCN(CC(F)(F)F)CC2)s1` [Example 278, 2′-chloro-5′-methoxy-6-methyl-N-(5-((1-(2,2,2-trifluoroethyl)piperidin-4-yl)oxy)-1,3,4-thiadiazol-2-yl)-[4,4′-bipyridine]-3-carboxamide] showed a half-inhibitory concentration (IC50) of 200 to 500 nM.

Compound `COc1nnc(NC(=O)c2cnc(C)cc2-c2cc(F)cc(C#N)c2)s1` [Example 439, 4-(3-cyano-5-fluorophenyl)-N-(5-methoxy-1,3,4-thiadiazol-2-yl)-6-methylpyridine-3-carboxamide] gave an IC50 of 500 to 1000 nM.

Compound `COc1nnc(NC(=O)c2cnc(C)cc2-c2ccc3ncncc3c2)s1` [Example 470, N-(5-methoxy-1,3,4-thiadiazol-2-yl)-6-methyl-4-(quinazolin-6-yl)pyridine-3-carboxamide] came in with an IC50 of 1000 to 10000 nM.

`COc1nnc(NC(=O)c2cnc(C)cc2-c2cc(C)c([S@@+](C)[O-])cc2OC)s1` (single isomer, unassigned) [Example 308]: the IC50 is 1000 to 10000 nM.

In turn, `COc1nnc(NC(=O)c2cnc(C)cc2-c2cccc3ccoc23)s1` [Example 367, 4-(1-benzofuran-7-yl)-N-(5-methoxy-1,3,4-thiadiazol-2-yl)-6-methylpyridine-3-carboxamide] registered an IC50 of 200 to 500 nM.

`COc1nnc(NC(=O)c2cnc(C)cc2-c2ccc3c(c2)OCCN3C)s1` [Example 418, N-(5-methoxy-1,3,4-thiadiazol-2-yl)-6-methyl-4-(4-methyl-3,4-dihydro-2H-1,4-benzoxazin-7-yl)pyridine-3-carboxamide] gave an IC50 of 1000 to 10000 nM.

In the case of `COc1ccc(-c2cc(C)ncc2C(=O)Nc2nnc(OC)s2)c(OC)c1` [Example 462, 4-(2,4-dimethoxyphenyl)-N-(5-methoxy-1,3,4-thiadiazol-2-yl)-6-methylpyridine-3-carboxamide], the IC50 was in the range of 200 to 500 nM.

Consider `COc1nnc(NC(=O)c2cc(-c3cc(Cl)ncc3OC)ncc2C)s1` [Example 285, 2′-chloro-5′-methoxy-N-(5-methoxy-1,3,4-thiadiazol-2-yl)-5-methyl-[2,4′-bipyridine]-4-carboxamide], for which the IC50 was 1000 to 10000 nM.

Turning to `COCCOc1cccc(-c2cc(C)ncc2C(=O)Nc2nnc(OC)s2)c1` [Example 429, N-(5-methoxy-1,3,4-thiadiazol-2-yl)-4-[3-(2-methoxyethoxy)phenyl]-6-methylpyridine-3-carboxamide], the IC50 lay in the range of 1000 to 10000 nM.

Still in this experiment, the particulars now being: Table 4; Pol theta (1-899) 5 nM, ATP, dT50 ssDNA.
Compound `COc1nnc(NC(=O)c2cnc(C)cc2-c2c(C)n[nH]c2C)s1` [Example 40, 4-(3,5-dimethyl-1H-pyrazol-4-yl)-N-(5-methoxy-1,3,4-thiadiazol-2-yl)-6-methylnicotinamide] came in with an IC50 of 1000 to 10000 nM.

As for `COc1cnc(Cl)cc1-c1cc(C)ncc1C(=O)Nc1nnc(OC(C)C)s1` [Example 6, 2′-chloro-N-(5-isopropoxy-1,3,4-thiadiazol-2-yl)-5′-methoxy-6-methyl-(4,4′-bipyridine)-3-carboxamide], the IC50 was at most 200 nM.

`COc1cnc(Cl)cc1-c1cc(C)ncc1C(=O)Nc1nnc(OC2(C)COC2)s1` [Example 24, 2′-chloro-5′-methoxy-6-methyl-N-(5-((3-methyloxetan-3-yl)oxy)-1,3,4-thiadiazol-2-yl)-(4,4′-bipyridine)-3-carboxamide] yielded a half-maximal inhibitory concentration (IC50) of at most 200 nM.

On to `COc1cnc(Cl)cc1-c1cc(C)ncc1C(=O)Nc1nnc(OCC2CCOC2C)s1` (centres unmarked) [Example 74, 2′-chloro-5′-methoxy-6-methyl-N-(5-((2-methyltetrahydrofuran-3-yl)methoxy)-1,3,4-thiadiazol-2-yl)-(4,4′-bipyridine)-3-carboxamide], for which the IC50 is at most 200 nM.

In turn, `COc1nnc(NC(=O)c2cnc(C)cc2-c2cc(Cl)ccc2CO)s1` [Example 66, 4-(5-chloro-2-(hydroxymethyl)phenyl)-N-(5-methoxy-1,3,4-thiadiazol-2-yl)-6-methylnicotinamide] showed a concentration for half-maximal inhibition (IC50) of 200 to 500 nM.

The experiment is the same for the next values; noted with them: Table 5; Pol theta (1-899) 5 nM, ATP, dT50 ssDNA.
As to `COc1nnc(NC(=O)c2cnc(C)cc2-c2ccnc3ncnn23)s1` [Example 91, 4-((1,2,4)triazolo(1,5-a)pyrimidin-7-yl)-N-(5-methoxy-1,3,4-thiadiazol-2-yl)-6-methylnicotinamide], the half-inhibitory concentration (IC50) was in the range of 1000 to 10000 nM.

Consider `COc1cnc(Cl)cc1-c1cc(C)ncc1C(=O)Nc1nnc(O[C@@H]2CCC[C@H](O)C2)s1` (single isomer, unassigned) [Example 160], for which the IC50 is at most 200 nM.

For `COc1cnc(Cl)cc1-c1cc(C)ncc1C(=O)Nc1nnc(O[C@H]2CC[C@@H](OC)C2)s1` (racemic) [Example 150, rac-2′-chloro-5′-methoxy-N-(5-(((1R,3S)-3-methoxycyclopentyl)oxy)-1,3,4-thiadiazol-2-yl)-6-methyl-(4,4′-bipyridine)-3-carboxamide], the IC50 is at most 200 nM.

Compound `COc1nnc(NC(=O)c2cnc(COC3CC3)cc2-c2cc(Cl)ncc2OC)s1` [Example 215, 2′-chloro-6-(cyclopropoxymethyl)-5′-methoxy-N-(5-methoxy-1,3,4-thiadiazol-2-yl)-(4,4′-bipyridine)-3-carboxamide] came in with an IC50 of at most 200 nM.

`COc1cnc(Cl)cc1-c1cc(C)ncc1C(=O)Nc1nnc(O[C@H]2CCC[C@](C)(O)C2)s1` (single isomer, unassigned) [Example 181] came in with a half-maximal inhibitory concentration (IC50) of at most 200 nM.

Compound `COc1cnc(Cl)cc1-c1cc(C)ncc1C(=O)Nc1nnc(O[C@H]2CCC[C@@](C)(O)C2)s1` (racemic) [Example 177, rac-2′-chloro-N-(5-(((1R,3S)-3-hydroxy-3-methylcyclohexyl)oxy)-1,3,4-thiadiazol-2-yl)-5′-methoxy-6-methyl-(4,4′-bipyridine)-3-carboxamide] gave a 50% inhibitory concentration (IC50) of 200 to 500 nM.

The experiment is the same for the next values; noted with them: Table 5; values given as bound; Pol theta (1-899) 5 nM, ATP, dT50 ssDNA.
As to `COc1nnc(NC(=O)c2nn(C)cc2-c2cc(Cl)ncc2OC)s1` [Example 107, 4-(2-chloro-5-methoxypyridin-4-yl)-N-(5-methoxy-1,3,4-thiadiazol-2-yl)-1-methyl-1H-pyrazole-3-carboxamide], the 50% inhibitory concentration (IC50) is over 10000 nM.

These data come from patent publication US20240287080A1 (IDEAYA Biosciences Inc., priority 2021, published 2024).
